These results are taken from PubChem BioAssay (NCI).

Among the test systems are COLO 205 colon; DU-145 prostate; HCT-116 colon; RXF 393 renal; SK-MEL-28 melanoma; A498 renal; HL-60(TB) leukemia; TK-10 renal; ACHN renal; MALME-3M melanoma.
What all share (assay): NCI tumour cell line growth inhibition, 48 h

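Cultured in 96-well plates, cells were exposed to test compound for 48 hours across five concentrations. GI50 marks 50% less growth. The concentration for full growth arrest is given as TGI.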

As to `Cc1cc(N(CCCNc2ccnc3cc(Cl)ccc23)Cc2ccc3c(c2)OCO3)nc(N2CCOCC2)n1`, the GI50 in the assay on COLO 205 colon was 0.269 µM; in the assay on DU-145 prostate, 0.353 µM; with HCT-116 colon it was 0.245 µM; in the assay on RXF 393 renal, 0.202 µM; with SK-MEL-28 melanoma, 0.254 µM. For the same compound, the TGI with COLO 205 colon amounted to 0.802 µM; in the assay with DU-145 prostate, 53.8 µM; in the assay with HCT-116 colon, 0.882 µM; with RXF 393 renal it was 0.53 µM; with SK-MEL-28 melanoma, 0.681 µM.
As for `COC12OCCN(C)C1=CC(=O)C1=NNC(C)C12` (stereo unspecified), the TGI with A498 renal, in the assay on COLO 205 colon, with HCT-116 colon, in the assay with HL-60(TB) leukemia, with RXF 393 renal and in the assay with SK-MEL-28 melanoma was > 100 µM each time. Further, in the assay with TK-10 renal, the TGI was > 100 µM.
Turning to `COc1cccc2c1C(=O)c1c(O)c3c(c(O)c1C2=O)C[C@@](O)(/C(C)=N/NC(=O)c1ccc(Cl)cc1)C[C@@H]3OC1CC(N)C(O)C(C)O1` (stereo partly specified), the GI50 with A498 renal is 0.129 µM; in the assay with ACHN renal, 0.181 µM; with DU-145 prostate it was 0.271 µM; in the assay on HCT-116 colon, 0.147 µM; with TK-10 renal, 0.178 µM. The TGI in the assay on A498 renal came to 0.625 µM; with ACHN renal, 1.43 µM; in the assay with DU-145 prostate, 13.5 µM; with HCT-116 colon, 1.49 µM; in the assay with TK-10 renal it was 0.723 µM.
`[N-]=[N+]=N/C1=C/CCCCC(=O)C1`: the TGI with COLO 205 colon, in the assay with HL-60(TB) leukemia, in the assay with MALME-3M melanoma, in the assay on RXF 393 renal, with SK-MEL-28 melanoma and in the assay with TK-10 renal was > 100 µM each time.
Take `CCN(CC)CCSc1c2ccccc2nc2c(OC)ccc(OC)c12`: the TGI is 32.5 µM in the assay on A498 renal; > 23.5 µM in the assay on ACHN renal; 17.7 µM in the assay with HCT-116 colon; 17.7 µM in the assay on HL-60(TB) leukemia; > 60.9 µM in the assay with MALME-3M melanoma; 3.94 µM in the assay on RXF 393 renal. For the same compound, the TGI stood at 8.91 µM in the assay with SK-MEL-28 melanoma and 17.3 µM in the assay on TK-10 renal.
`CCCCCCCN=C(N)c1ccc(N2CCN(c3ccc(C(N)=NCCCCCCC)cc3)CC2)cc1`: the GI50 in the assay on A498 renal was 3.32 µM; with ACHN renal, 0.499 µM; in the assay on COLO 205 colon it was 1.54 µM; in the assay with DU-145 prostate, 0.296 µM; in the assay on RXF 393 renal, 2.46 µM; in the assay on SK-MEL-28 melanoma it was 2.08 µM. For the same compound, the GI50 in the assay with TK-10 renal is 0.146 µM. For the same compound, the TGI in the assay with A498 renal is > 100 µM; with ACHN renal, 24.8 µM; with COLO 205 colon it was > 52.6 µM; with DU-145 prostate, 21.8 µM; in the assay on HCT-116 colon, > 72.1 µM; with RXF 393 renal, 6.69 µM. Also, the values for the TGI with SK-MEL-28 melanoma and with TK-10 renal were > 22.4 µM and 1.93 µM, respectively.
Regarding `O=C1CCC(=O)c2c1c(O)c1ccncc1c2O`, the TGI in the assay on ACHN renal is 28.6 µM; with COLO 205 colon it was 20.8 µM; with HCT-116 colon, 27.9 µM; in the assay with HL-60(TB) leukemia, 26.4 µM; in the assay on MALME-3M melanoma, 29.4 µM; in the assay with RXF 393 renal it was 35.6 µM. For the same compound, the TGI in the assay with SK-MEL-28 melanoma was 34.8 µM; in the assay on TK-10 renal it was 33 µM.
For the compound `O=[P@@]1(c2ccccc2)O[C@H](COCc2ccccc2)[C@@H](OCc2ccccc2)[C@H](OCc2ccccc2)[C@H]1NCc1ccccc1`, the GI50 in the assay on A498 renal is 2.39 µM; in the assay with ACHN renal it was 3.38 µM; in the assay on COLO 205 colon it was 1.93 µM; in the assay with DU-145 prostate, 4.97 µM; in the assay with HCT-116 colon it was 2.74 µM; with HL-60(TB) leukemia, 2.15 µM. The GI50 in the assay on RXF 393 renal is 3.83 µM; with SK-MEL-28 melanoma it was 4.48 µM; in the assay with TK-10 renal, 3.69 µM. The TGI in the assay on A498 renal is 8.99 µM; with ACHN renal, > 100 µM; with COLO 205 colon it was 3.71 µM; in the assay on DU-145 prostate, > 100 µM; with HCT-116 colon it was > 100 µM; in the assay with HL-60(TB) leukemia, 6.09 µM. Further, the TGI with RXF 393 renal, in the assay on SK-MEL-28 melanoma and with TK-10 renal was > 100 µM throughout.
Take `COc1ccc(/C(=C\C=C(C#N)C#N)Sc2nc3ccccc3s2)cc1`: the GI50 is 16.4 µM in the assay on A498 renal, 7.24 µM in the assay on COLO 205 colon, 1.47 µM with RXF 393 renal and 5.43 µM in the assay on TK-10 renal. Besides, the TGI in the assay on A498 renal amounted to 28.5 µM; in the assay with COLO 205 colon, 17.4 µM; with RXF 393 renal, 2.97 µM; in the assay on TK-10 renal, 11.8 µM.
Regarding `CCOC(=O)/C=C/c1ccc(C#Cc2ccccc2)cc1`, the GI50 in the assay with A498 renal is 44.9 µM; in the assay on ACHN renal, > 100 µM; in the assay with COLO 205 colon, > 100 µM; in the assay with HCT-116 colon it was > 100 µM; in the assay with HL-60(TB) leukemia, > 100 µM; in the assay on MALME-3M melanoma it was 98.3 µM. Moreover, the GI50 is 49.2 µM in the assay with RXF 393 renal, > 100 µM with SK-MEL-28 melanoma and > 100 µM in the assay with TK-10 renal. The TGI in the assay on A498 renal, in the assay with ACHN renal, with COLO 205 colon, in the assay on HCT-116 colon, in the assay on HL-60(TB) leukemia and with MALME-3M melanoma was > 100 µM each time. The TGI with RXF 393 renal, in the assay on SK-MEL-28 melanoma and in the assay with TK-10 renal was > 100 µM each time.
In the case of `COC(=O)c1s/c(=N\C(=S)N(C)C)n(-c2ccc(Cl)cc2)c1C(=O)OC`, the TGI in the assay on A498 renal, in the assay with ACHN renal, in the assay with COLO 205 colon, in the assay on HCT-116 colon, with HL-60(TB) leukemia and in the assay with MALME-3M melanoma was > 100 µM throughout. Besides, the TGI in the assay with RXF 393 renal, in the assay on SK-MEL-28 melanoma and in the assay with TK-10 renal was > 100 µM in each case.
As for `O=C(Nc1ccc(Cl)c(C(F)(F)F)c1)c1ccc(NC2=C(Cl)C(=O)N(Cc3ccccc3)C2=O)cc1`, the GI50 was 4.18 µM in the assay with ACHN renal; 19.2 µM in the assay with COLO 205 colon; 2.45 µM in the assay with DU-145 prostate; 13.9 µM in the assay with HCT-116 colon; 2.58 µM with HL-60(TB) leukemia; 4.4 µM with SK-MEL-28 melanoma. Further, in the assay on TK-10 renal, the GI50 is 19.4 µM. Moreover, the TGI came to 15.2 µM in the assay on ACHN renal; 56.8 µM in the assay with COLO 205 colon; 6.71 µM in the assay with DU-145 prostate; 27.2 µM in the assay with HCT-116 colon; 6.46 µM in the assay with HL-60(TB) leukemia; 17.6 µM in the assay with SK-MEL-28 melanoma. For the same compound, in the assay on TK-10 renal, the TGI is 34.4 µM.
